Where two headings read alike, the source gives them in different places.
Molecular target: T1, integrin α4β7 on α4β7+ memory T helper cells (Homo sapiens, UniProt P13612+P26010)
T1 construct: endogenous in cells
T1 sequence (P13612 34-1032): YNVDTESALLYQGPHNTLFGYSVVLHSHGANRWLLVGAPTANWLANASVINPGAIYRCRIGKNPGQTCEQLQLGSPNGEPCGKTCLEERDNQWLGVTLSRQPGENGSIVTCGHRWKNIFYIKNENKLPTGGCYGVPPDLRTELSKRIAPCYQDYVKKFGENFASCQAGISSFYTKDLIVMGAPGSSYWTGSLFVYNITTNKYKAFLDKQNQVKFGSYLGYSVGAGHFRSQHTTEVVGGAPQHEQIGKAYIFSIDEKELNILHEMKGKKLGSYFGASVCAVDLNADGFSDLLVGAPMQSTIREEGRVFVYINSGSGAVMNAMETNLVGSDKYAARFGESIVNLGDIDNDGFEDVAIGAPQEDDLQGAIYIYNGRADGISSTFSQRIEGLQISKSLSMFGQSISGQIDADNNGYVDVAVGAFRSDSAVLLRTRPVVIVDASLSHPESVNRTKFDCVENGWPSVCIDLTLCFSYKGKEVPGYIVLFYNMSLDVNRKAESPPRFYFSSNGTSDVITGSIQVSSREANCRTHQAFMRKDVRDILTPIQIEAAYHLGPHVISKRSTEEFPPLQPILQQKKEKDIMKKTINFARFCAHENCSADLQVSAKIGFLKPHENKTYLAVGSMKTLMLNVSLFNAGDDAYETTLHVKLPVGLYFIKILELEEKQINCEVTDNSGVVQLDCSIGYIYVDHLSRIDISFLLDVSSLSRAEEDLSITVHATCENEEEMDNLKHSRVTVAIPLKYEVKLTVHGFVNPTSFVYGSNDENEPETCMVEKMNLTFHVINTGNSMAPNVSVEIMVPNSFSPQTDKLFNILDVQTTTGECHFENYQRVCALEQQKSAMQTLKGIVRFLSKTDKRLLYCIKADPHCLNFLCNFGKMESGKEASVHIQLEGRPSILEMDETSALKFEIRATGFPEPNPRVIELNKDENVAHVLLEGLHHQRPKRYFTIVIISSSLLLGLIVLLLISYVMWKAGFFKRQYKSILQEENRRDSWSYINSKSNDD
T1 sequence (P26010 20-798): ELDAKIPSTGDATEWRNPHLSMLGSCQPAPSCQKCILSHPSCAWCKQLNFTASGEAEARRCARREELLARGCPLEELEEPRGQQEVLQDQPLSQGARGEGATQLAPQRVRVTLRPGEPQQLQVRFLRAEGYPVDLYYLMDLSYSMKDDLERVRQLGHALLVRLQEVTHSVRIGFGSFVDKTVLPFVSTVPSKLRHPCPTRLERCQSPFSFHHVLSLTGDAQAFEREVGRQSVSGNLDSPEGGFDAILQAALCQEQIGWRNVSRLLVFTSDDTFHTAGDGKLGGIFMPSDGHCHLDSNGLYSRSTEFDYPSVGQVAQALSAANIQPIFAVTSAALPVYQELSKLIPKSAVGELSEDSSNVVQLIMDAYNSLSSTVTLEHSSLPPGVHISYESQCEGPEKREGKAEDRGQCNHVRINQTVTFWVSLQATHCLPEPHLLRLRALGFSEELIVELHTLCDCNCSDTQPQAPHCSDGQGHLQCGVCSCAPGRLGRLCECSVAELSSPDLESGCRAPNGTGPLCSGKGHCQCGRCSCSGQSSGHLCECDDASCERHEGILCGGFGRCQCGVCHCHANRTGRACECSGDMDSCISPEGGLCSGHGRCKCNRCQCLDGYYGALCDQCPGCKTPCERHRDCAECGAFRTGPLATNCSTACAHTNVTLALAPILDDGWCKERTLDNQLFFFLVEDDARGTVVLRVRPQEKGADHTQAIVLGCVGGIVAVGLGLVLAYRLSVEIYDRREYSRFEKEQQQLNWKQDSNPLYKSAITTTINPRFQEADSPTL
Experiment: MAdCAM-1 competition / receptor occupancy assay in human whole blood, α4β7-positive Th memory cells
Assay type: cell-based
Conditions: human whole blood; for IC50: inhibition of MAdCAM-1 binding to α4β7-positive Th memory cells, FACS
Procedure, shortened: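 Human heparinised whole blood; saturating biotinylated rhMAdCAM-1-Fc or rhVCAM-1-Fc bound 1 h at RT, stained in buffer with 4 mM MnCl2, detected by streptavidin-APC flow cytometry on gated CD45+CD3+CD4+CD45RO+CD49d+ β7+ or β7-lo cells. Occupancy = 100−((% ligand-positive cells with compound/% ligand-positive cells DMSO)*100).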

[1] = read-out: MADCAM FACS α4β7 Th mem

Question: What does the source list for `CC(C)C[C@@H]1NC(=O)C[C@H](CCCCN)N(C)C(=O)[C@H](CCCCN)NC(=O)[C@@H]2CCCN2[C@H](C(=O)NC(C)(C)C)[C@H](C)NC(=O)[C@H]([C@@H](C)O)NC(=O)[C@H](CC(=O)O)NC1=O` [Compound 456]?
Answer: receptor occupancy at 1 µM (1000 nM, read-out: receptor occupancy at maximum concentration): 15%; IC50 (read-out: MADCAM FACS a4b7 Th mem): 1000 nM

Question: Which IC50 [1] does the source give for `CC(C)C[C@@H]1NC(=O)c2ccc(-c3ccc(N4CCN(C(=O)[C@H]5CCC[C@H]5C(=O)N5CCN(c6ccc(-c7ccc8cc7CNC(=O)[C@@H]7CCCN7[C@H](C(=O)NC(C)(C)C)[C@H](C)NC(=O)[C@H]([C@@H](C)O)NC(=O)[C@H](CC(=O)O)NC(=O)[C@H](CC(C)C)NC8=O)cc6)CC5)CC4)cc3)c(c2)CNC(=O)[C@@H]2CCCN2[C@H](C(=O)NC(C)(C)C)[C@H](C)NC(=O)[C@H]([C@@H](C)O)NC(=O)[C@H](CC(=O)O)NC1=O` [Compound 458] here?
Answer: 66 nM

Question: Which IC50 [1] does the source give for `CC(C)C[C@@H]1NC(=O)c2ccc(-c3ccc(N4CCN(C(=O)C56CC7CC(C5)CC(C(=O)N5CCN(c8ccc(-c9ccc%10cc9CNC(=O)[C@@H]9CCCN9[C@H](C(=O)NC(C)(C)C)[C@H](C)NC(=O)[C@H]([C@@H](C)O)NC(=O)[C@H](CC(=O)O)NC(=O)[C@H](CC(C)C)NC%10=O)cc8)CC5)(C7)C6)CC4)cc3)c(c2)CNC(=O)[C@@H]2CCCN2[C@H](C(=O)NC(C)(C)C)[C@H](C)NC(=O)[C@H]([C@@H](C)O)NC(=O)[C@H](CC(=O)O)NC1=O` [Compound 460] here?
Answer: 107 nM

Question: With `CC(C)C[C@@H]1NC(=O)c2ccc(-c3ccc(N4CCN(C(=O)c5cc(F)ccc5-c5ccc(F)cc5C(=O)N5CCN(c6ccc(-c7ccc8cc7CNC(=O)[C@@H]7CCCN7[C@H](C(=O)NC(C)(C)C)[C@H](C)NC(=O)[C@H]([C@@H](C)O)NC(=O)[C@H](CC(=O)O)NC(=O)[C@H](CC(C)C)NC8=O)cc6)CC5)CC4)cc3)c(c2)CNC(=O)[C@@H]2CCCN2[C@H](C(=O)NC(C)(C)C)[C@H](C)NC(=O)[C@H]([C@@H](C)O)NC(=O)[C@H](CC(=O)O)NC1=O` [Compound 475] as the molecule, how does the IC50 [1] read?
Answer: 74 nM

Question: With `CC(C)C[C@@H]1NC(=O)c2ccc(-c3ccc(N4CCN(C(=O)C[C@@H](N)C(=O)N5CCN(c6ccc(-c7ccc8cc7CNC(=O)[C@@H]7CCCN7[C@H](C(=O)NC(C)(C)C)[C@H](C)NC(=O)[C@H]([C@@H](C)O)NC(=O)[C@H](CC(=O)O)NC(=O)[C@H](CC(C)C)NC8=O)cc6)CC5)CC4)cc3)c(c2)CNC(=O)[C@@H]2CCCN2[C@H](C(=O)NC(C)(C)C)[C@H](C)NC(=O)[C@H]([C@@H](C)O)NC(=O)[C@H](CC(=O)O)NC1=O` [Compound 493] as the molecule, how does the IC50 [1] read?
Answer: 94 nM

Question: Which IC50 [1] does the source give for `COc1cc(C(=O)N2CCN(c3ccc(-c4ccc5cc4CNC(=O)[C@@H]4CCCN4[C@H](C(=O)NC(C)(C)C)[C@H](C)NC(=O)[C@H]([C@@H](C)O)NC(=O)[C@H](CC(=O)O)NC(=O)[C@H](CC(C)C)NC5=O)cc3)CC2)cc(-c2ccc(C(=O)N3CCN(c4ccc(-c5ccc6cc5CNC(=O)[C@@H]5CCCN5[C@H](C(=O)NC(C)(C)C)[C@H](C)NC(=O)[C@H]([C@@H](C)O)NC(=O)[C@H](CC(=O)O)NC(=O)[C@H](CC(C)C)NC6=O)cc4)CC3)cc2F)c1` [Compound 464] here?
Answer: 232 nM

Question: With `CC(C)C[C@@H]1NC(=O)c2ccc(-c3ccc(N4CCN(C(=O)CCC(=O)N5CCN(c6ccc(-c7ccc8cc7CNC(=O)[C@@H]7CCCN7[C@H](C(=O)NC(C)(C)C)[C@H](C)NC(=O)[C@H]([C@@H](C)O)NC(=O)[C@H](CC(=O)O)NC(=O)[C@H](CC(C)C)NC8=O)cc6)CC5)CC4)cc3)c(c2)CNC(=O)[C@@H]2CCCN2[C@H](C(=O)NC(C)(C)C)[C@H](C)NC(=O)[C@H]([C@@H](C)O)NC(=O)[C@H](CC(=O)O)NC1=O` [Compound 484] as the molecule, how does the IC50 [1] read?
Answer: 45 nM

Question: `CC(C)C[C@@H]1NC(=O)c2ccc(-c3ccc(N4CCN(Cc5ccc(CN6CCN(c7ccc(-c8ccc9cc8CNC(=O)[C@@H]8CCCN8[C@H](C(=O)NC(C)(C)C)[C@H](C)NC(=O)[C@H]([C@@H](C)O)NC(=O)[C@H](CC(=O)O)NC(=O)[C@H](CC(C)C)NC9=O)cc7)CC6)cc5)CC4)cc3)c(c2)CNC(=O)[C@@H]2CCCN2[C@H](C(=O)NC(C)(C)C)[C@H](C)NC(=O)[C@H]([C@@H](C)O)NC(=O)[C@H](CC(=O)O)NC1=O` [Compound 500] was tested. Which IC50 [1] did it give?
Answer: 55 nM

Question: For `CC(C)C[C@@H]1NC(=O)c2ccc(-c3ccc(N4CCN(C(=O)COCC(=O)N5CCN(c6ccc(-c7ccc8cc7CNC(=O)[C@@H]7CCCN7[C@H](C(=O)NC(C)(C)C)[C@H](C)NC(=O)[C@H]([C@@H](C)O)NC(=O)[C@H](CC(=O)O)NC(=O)[C@H](CC(C)C)NC8=O)cc6)CC5)CC4)cc3)c(c2)CNC(=O)[C@@H]2CCCN2[C@H](C(=O)NC(C)(C)C)[C@H](C)NC(=O)[C@H]([C@@H](C)O)NC(=O)[C@H](CC(=O)O)NC1=O` [Compound 390], which EC50 (FIG. 7, read-out: EC50, competition with saturating amount of MAdCAM) is on record?
Answer: 90 nM

Question: What about the IC50 [1] of the same molecule?
Answer: 90 nM

Question: For `CC(C)C[C@@H]1NC(=O)c2ccc(-c3ccc(N4CCN(CC(=O)N5CCN(c6ccc(-c7ccc8cc7CNC(=O)[C@@H]7CCCN7[C@H](C(=O)NC(C)(C)C)[C@H](C)NC(=O)[C@H]([C@@H](C)O)NC(=O)[C@H](CC(=O)O)NC(=O)[C@H](CC(C)C)NC8=O)cc6)CC5)CC4)cc3)c(c2)CNC(=O)[C@@H]2CCCN2[C@H](C(=O)NC(C)(C)C)[C@H](C)NC(=O)[C@H]([C@@H](C)O)NC(=O)[C@H](CC(=O)O)NC1=O` [Compound 481], which IC50 [1] is on record?
Answer: 67 nM

Question: With `CC(C)C[C@@H]1NC(=O)c2ccc(-c3ccc(N4CCN(C(=O)c5cc(C(=O)N6CCN(c7ccc(-c8ccc9cc8CNC(=O)[C@@H]8CCCN8[C@H](C(=O)NC(C)(C)C)[C@H](C)NC(=O)[C@H]([C@@H](C)O)NC(=O)[C@H](CC(=O)O)NC(=O)[C@H](CC(C)C)NC9=O)cc7)CC6)cc(C(=O)N6CCN(c7ccc(-c8ccc9cc8CNC(=O)[C@@H]8CCCN8[C@H](C(=O)NC(C)(C)C)[C@H](C)NC(=O)[C@H]([C@@H](C)O)NC(=O)[C@H](CC(=O)O)NC(=O)[C@H](CC(C)C)NC9=O)cc7)CC6)c5)CC4)cc3)c(c2)CNC(=O)[C@@H]2CCCN2[C@H](C(=O)NC(C)(C)C)[C@H](C)NC(=O)[C@H]([C@@H](C)O)NC(=O)[C@H](CC(=O)O)NC1=O` [Compound 520] as the molecule, how does the IC50 [1] read?
Answer: 1.2 nM

Question: `CC(C)C[C@@H]1NC(=O)c2ccc(-c3ccc(N4CCN(C(=O)CCOCCOCCOCCOCCOCCOCCOCCOCCOCCOCCC(=O)N5CCN(c6ccc(-c7ccc8cc7CNC(=O)[C@@H]7CCCN7[C@H](C(=O)NC(C)(C)C)[C@H](C)NC(=O)[C@H]([C@@H](C)O)NC(=O)[C@H](CC(=O)O)NC(=O)[C@H](CC(C)C)NC8=O)cc6)CC5)CC4)cc3)c(c2)CNC(=O)[C@@H]2CCCN2[C@H](C(=O)NC(C)(C)C)[C@H](C)NC(=O)[C@H]([C@@H](C)O)NC(=O)[C@H](CC(=O)O)NC1=O` [Compound 511] was tested. Which IC50 [1] did it give?
Answer: 182 nM

Question: Which IC50 [1] does the source give for `CC(C)C[C@@H]1NC(=O)C[C@H](CCCCN)N(C)C(=O)[C@H](CCCCNC(=O)CCCCCC(=O)NCCCC[C@@H]2NC(=O)[C@@H]3CCCN3[C@H](C(=O)NC(C)(C)C)[C@H](C)NC(=O)[C@H]([C@@H](C)O)NC(=O)[C@H](CC(=O)O)NC(=O)[C@H](CC(C)C)NC(=O)C[C@H](CCCCN)N(C)C2=O)NC(=O)[C@@H]2CCCN2[C@H](C(=O)NC(C)(C)C)[C@H](C)NC(=O)[C@H]([C@@H](C)O)NC(=O)[C@H](CC(=O)O)NC1=O` [Compound 532] here?
Answer: 57 nM

— patent US11713338B2, “Cyclic peptides multimers targeting α-4-β-7 integrin” (priority 2016, dated 2023)
